Laboratory results published in patent US10933032B2, “Methods for the treatment of cancer using coenzyme Q10 combination therapies” (Berg LLC, priority 2013, dated 2021).
Entries after “also recorded” stand apart in the source; their conditions may differ.

How the values were obtained:
[1] = tested on: MIAPaCa-2 human pancreatic tumor cells; assay: Xenogeneic mouse human pancreatic cancer model, survival; assay type: in vivo, NOD scid gamma (NSG) mice; conditions: for Survival (prolongation of life) compared to untreated control: Example 1, Regimen 1, single agent: IV 4% Coenzyme Q10 50 mg/kg/day, or IV gemcitabine 150 mg/kg/week for 3 weeks with one week rest; for Survival, combination of CoQ10 and gemcitabine vs other groups: Example 1, Regimen 1: IV CoQ10 50 mg/kg/day + IV gemcitabine 150 mg/kg weekly for 3 weeks with one week rest
[2] = tested on: MIAPaCa-2 human pancreatic tumor cells; assay: Xenogeneic mouse human pancreatic cancer model, tumors harvested at mortality (size, weight, vasculature, palpation); assay type: in vivo, NOD scid gamma (NSG) mice
in vivo = conditions: rat, rats, given three times per week for 4 weeks
BT-20 = assay: Induction of early apoptosis (Bcl-2, annexin V, or caspase activation); assay type: cell-based; conditions: BREAST: BT-20
Protocol: (§1) The effects of Coenzyme Q10 treatment on a variety of oncogenic and normal cell lines were examined and compared. The sensitivity of cells to Coenzyme Q10 was assessed by monitoring induction of apoptosis. CoQ10 treatment of cells was carried out as described in detail below in the Materials and Methods. Induction of apoptosis was assessed in the treated cells by monitoring indicators of early apoptosis (e.g., Bcl-2 expression, caspase activation and by using annexin V assays) as described below. From these studies, the minimal CoQ10 dosage, e.g., concentration of CoQ10 and time of treatment, required to induce apoptosis in the panel of cell lines was determined.
(§2) Cells were cultured in T-75 flasks with relevant medium supplemented with 10% Fetal Bovine Serum (FBS), 1% PSA (penicillin, streptomycin, amphotericin B) (Invitrogen and Cellgro) in a 37° C. incubator with 5% CO2 levels until 70-80% confluence was reached. To harvest cells for treatment, flasks were primed with 1 mL Trypsin, aspirated, trypsinized with an additional 3 mL, and incubated at 37° C. for 3-5 minutes. Cells were then neutralized with an equal volume of media and the subsequent solution was centrifuged at […] for 8 minutes. The supernatant was aspirated and the cells were resuspended with 8.5 ml of media. A mixture of 500 ul of the resuspension and 9.5 ml of […] was read twice by a coulter counter and the appropriate number of cells to be seeded into each dish was determined. Control and concentration ranging from 0-200 μM groups were examined in triplicate. From a 500 μM CoQ-10 stock solution, serial dilutions were performed to achieve desired experimental concentration in appropriate dishes. Dishes were incubated in a 37° C. incubator with 5% CO2 levels for 0-72 hours depending on cell type and experimental protocol.
(§3) Following cell treatment incubation period was complete, protein isolation was performed. Dishes of all treatment groups were washed twice with 2 ml, and once with 1 ml of ice cold 1× Phosphate Buffered Saline (PBS). The PBS was aspirated from the dishes after the initial 2 washes only. Cells were gently scraped and collected into microcentrifuge tubes using the final volume from the third wash and centrifuged at 10,000 rpm for 10 minutes. After centrifugation, the supernatant was aspirated and the pellet was lysed with 50 uL of lysis buffer (1 uL of protease and phosphotase inhibitor for every 100 uL of lysis buffer). Samples were then frozen overnight at −20° C.
(§4) After the cell treatment incubation period was complete, protein isolation was performed. Flasks of all treatment groups were washed twice with 5 mL, and once with 3 mL of ice cold 1×PBS. The PBS was aspirated from the flasks after the first 2 washes only. Cells were gently scraped and collected into 15 mL centrifuge tubes using the final volume from the third wash and centrifuged for at 10,000 rpm for 10 minutes. After centrifugation, the supernatant was aspirated and the pellet was lysed with an appropriate amount of lysis buffer (1 uL of protease and phosphotase inhibitor for every 100 uL of lysis buffer). Lysis buffer volume was dependent on pellet size. Samples were transferred in microcentrifuge tubes and frozen overnight at −20° C.
(§5) Samples were thawed at […] and sonicated to ensure homogenization the day following protein isolation. Protein quantification was performed using the micro BCA protein assay kit (Pierce). To prepare samples for Immuno-blotting, a 1:19 solution of betamercaptoethanol (Sigma) to sample buffer (Bio-Rad) was prepared. Samples were diluted 1:1 with the betamercaptoethanol-sample buffer solution, boiled at 95° C. for 5 minutes, and frozen overnight at −20° C.
(§6) The volume of sample to load per well was determined using the raw mean concentration of protein obtained from the BCA protein assay. Approximately 30-60 μg of protein were loaded for each treatment time point. […]

Ewing's sarcoma (NCI) = assay: as above; assay type: cell-based; conditions: BONE: Ewing's sarcoma (NCI)
Protocol: as §1, §2, §3, §4, §5, §6

HepG2 = assay: as above; assay type: cell-based; conditions: LIVER: HepG2
Protocol: as §1, §2, §3, §4, §5, §6

[3] = tested on: Keratinocytes (Heka, Hekn); assay: as above; assay type: cell-based; conditions: SKIN: Keratinocytes (Heka, Hekn)
Protocol: as §1, §2, §3, §4, §5, §6

MDA MB 468 = assay: as above; assay type: cell-based; conditions: BREAST: MDA MB 468
Protocol: as §1, §2, §3, §4, §5, §6

[4] = tested on: Mammary fiboblasts: 184A1 and 184B5) (Lawrence Berkeley); assay: as above; assay type: cell-based; conditions: BREAST: Mammary fiboblasts: 184A1 and 184B5
Protocol: as §1, §2, §3, §4, §5, §6

Osteosarcoma (143b) = assay: as above; assay type: cell-based; conditions: BONE: Osteosarcoma (143b)
Protocol: as §1, §2, §3, §4, §5, §6

PC3 = assay: as above; assay type: cell-based; conditions: PROSTATE: PC3
Protocol: as §1, §2, §3, §4, §5, §6

SkBr-3 = assay: as above; assay type: cell-based; conditions: BREAST: SkBr-3
Protocol: as §1, §2, §3, §4, §5, §6

tumors = conditions: Example 8, written in present tense
Protocol: In an in vivo tumor xenograft model, mice are implanted with tumors. For example, MIAPaCa-2 pancreatic cancer cells suspended in [sequence] are injected into NSG mice. Alternatively, other tumor cell lines, e.g., triple negative breast cancer, hepatic cancer, prostate cancer, melanoma, sarcoma, carcinoma cell lines, are used in the xenograft mouse model.
Various sequential regimens and combinations of CoQ10 and chemotherapeutic agents are tested for the ability to reduce tumor burden and/or reduce tumor metastasis. […] For example, in some animals, 2 or more cycles of CoQ10 are administered in Treatment 1 prior to one or more cycles of the chemotherapeutic agent in Treatment 2. In some animals, one cycle of CoQ10 is administered in Treatment 1 prior to administration of multiple cycles of chemotherapy in Treatment 2.
Tumor volumes are monitored using routine methods, e.g., calipers, imaging analysis. At the end of the study, tumors are excised and analyzed for using routine methods, e.g., for size (e.g., weight and volume), histological characteristics, grade, and vascularization.

COC1=C(OC)C(=O)C(C/C=C(\C)CC/C=C(\C)CC/C=C(\C)CC/C=C(\C)CC/C=C(\C)CC/C=C(\C)CC/C=C(\C)CC/C=C(\C)CC/C=C(\C)CCC=C(C)C)=C(C)C1=O [CoQ10, Coenzyme Q10]
Survival rate (survival probability) at 300 days ([1]; 50 mg/kg CoQ10, FIG. 30): lowest survival rate | Survival rate (survival probability) at 300 days ([1]; 100 mg/kg CoQ10, FIG. 30): between the other two treatment groups | Survival rate (survival probability) at 300 days ([1]; 200 mg/kg CoQ10, FIG. 30): highest survival rate | Survival, pretreatment with CoQ10 for sixty days followed by gemcitabine+CoQ10 ([1]; CoQ10 200 mg/kg, vs gemcitabine+CoQ10 from the start, gemcitabine or CoQ10 alone, FIG. 31): improved survival in comparison to treatment with gemcitabine+CoQ10 from the start of the treatment regimen; also recorded: improved survival outcomes | Survival rate (survival probability) at 200 days ([1]; CoQ10 60 days prior to start of gemcitabine and continuing with CoQ10, FIG. 31): highest survival rate | Responses associated with favorable therapeutic endpoints, most notably an increase in survival ([1]; CoQ10 alone or CoQ10 in combination with doxorubicin, vs gemcitabine or doxorubicin): more effective than gemcitabine or doxorubicin | Survival rate (survival probability) at 200 days ([1]; CoQ10 from the start (alone), FIG. 31): next highest survival rate | Survival (prolongation of life) compared to untreated control ([1]; FIG. 1): prolongation of life as compared to untreated control | Survival (prolongation of life) compared to untreated control ([1]; FIG. 1, listed as Coenzyme Q10): increases survival time of the mice | Survival, combination of CoQ10 and gemcitabine vs other groups ([1]; FIG. 1): prolonged survival and long-term remission that was statistically significant compared to other groups | Survival, combination of CoQ10 and gemcitabine vs other groups ([1]; FIG. 1, listed as Coenzyme Q10): more effective at increasing survival time in mice bearing pancreatic tumors than treatment with either agent alone | Impact on survival, CoQ10 alone vs gemcitabine alone ([1]; Example 1, Regimen 1: IV CoQ10 50 mg/kg/day vs gemcitabine 150 mg/kg/week, FIG. 1): significantly greater impact on survival than gemcitabine alone | Survival, CoQ10 alone ([1]; Example 2, Regimen 2: 4% CoQ10 intravenous formulation 50 mg/kg intraperitoneally twice daily, 3 weeks with one week rest, vs untreated or gemcitabine alone, FIG. 4): increase in survival | Survival, CoQ10 in combination with gemcitabine ([1]; Example 2, Regimen 2: CoQ10 50 mg/kg IP twice daily + gemcitabine 150 mg/kg once per week, vs untreated or gemcitabine alone, FIG. 4): increase in survival | Survival (viability, mortality), CoQ10 in combination with doxorubicin vs doxorubicin alone ([1]; Example 4, once daily dosing with intravenous CoQ10, FIG. 7): decreased mortality rates | Survival, Coenzyme Q10 alone vs control animals ([1]; Example 5, Regimen 3: IP 4% CoQ10 intravenous formulation 50 or 75 mg/kg/dose, 3 times daily, FIG. 8): significantly increased survival as compared to control animals | Survival, combination of Coenzyme Q10 and gemcitabine vs same dose of Coenzyme Q10 alone ([1]; Example 5, Regimen 3: IP CoQ10 50 or 75 mg/kg/dose 3 times daily + IV gemcitabine 150 mg/kg weekly for 3 weeks with one week rest, FIG. 8): increased survival as compared to mice treated with the same dose of Coenzyme Q10 alone | Survival, pretreatment with CoQ10 followed by gemcitabine vs co-treatment regimen ([1]; Example 11, IP CoQ10 75 mg/kg/dose 3 times daily, gemcitabine 150 mg/kg weekly initiated 1-3 weeks later, early time points, FIG. 15): improved survival | Survival, CoQ10 + gemcitabine vs untreated control ([1]; Example 11, latest time point, FIG. 15): increases the survival in a statistically significant manner as compared to untreated control | Survival, dose dependence ([1]; Example 17, Regimen 3: 50 mg/kg or 75 mg/kg, FIG. 29): dose dependent increase in survival | Effect on survival when combined with gemcitabine ([1]; Example 17, Regimen 3, FIG. 29): additive effect to gemcitabine | Survival rates, continuous infusion of CoQ10 vs three doses (50 mg/kg or 75 mg/kg) ([1]; Example 17, best outcomes at 200 mg/kg, FIG. 30): significantly improved survival rates compared to three doses | Survival, continuous infusion of CoQ10 at 200 mg/kg vs 50 mg/kg ([1]; FIG. 30): significantly improved survival in comparison to 50 mg/kg CoQ10 | Survival rate (survival probability) at 200 days ([1]; gemcitabine and CoQ10 from the start, FIG. 31): next highest survival rate | Growth of pancreatic tumors (tumor size at time of death) vs control ([2]; Example 1, single agents: Group 2 Coenzyme Q10 IV 50 mg/kg/day, Group 3 gemcitabine 150 mg/kg/week, FIG. 2): inhibited the growth of pancreatic tumors; also recorded: inhibits pancreatic tumor growth | Tumor vasculature (histological analysis) ([2]; Example 1, intravenous Coenzyme Q10 vs untreated control mice, not quantified): decreased tumor vasculature; also recorded: decrease in the amount of vasculature in pancreatic tumors | Tumor weight / tumor growth, combination of Coenzyme Q10 and gemcitabine (Group 4) ([2]; Example 1, vs Coenzyme Q10 alone or gemcitabine alone, FIG. 3): significantly smaller than tumors from mice treated with Coenzyme Q10 alone; also recorded: more effective at inhibiting the growth of pancreatic tumors in mice than treatment with either agent alone | Tumor weight at mortality, Coenzyme Q10 alone (Group 2) ([2]; Example 1, vs control group and gemcitabine treated group, FIG. 3): significantly smaller than tumors from mice in the control group | MTD at 4 weeks (in vivo): 250 mg/kg | Indication of Early apoptosis (Bcl-2, annexin V, or caspase activation) (BT-20): Strong | Minimal CoQ10 concentration required for induction of early apoptosis, Concentration (BT-20): 100 µM | Minimal treatment time required for induction of early apoptosis, Time (BT-20): 48 h | Minimal CoQ10 concentration required for induction of early apoptosis, Concentration (Ewing's sarcoma (NCI)): 5 µM | Minimal treatment time required for induction of early apoptosis, Time (Ewing's sarcoma (NCI)): 1 h | Indication of Early apoptosis (Bcl-2, annexin V, or caspase activation) (Ewing's sarcoma (NCI); cell wraps: Extremely / strong): Extremely | Indication of Early apoptosis (Bcl-2, annexin V, or caspase activation) (HepG2): Very Strong | Minimal CoQ10 concentration required for induction of early apoptosis, Concentration (HepG2): 50 µM | Minimal treatment time required for induction of early apoptosis, Time (HepG2): 24 h | Indication of Early apoptosis (Bcl-2, annexin V, or caspase activation) [3]: None | Indication of Early apoptosis (Bcl-2, annexin V, or caspase activation) (MDA MB 468): Strong | Minimal CoQ10 concentration required for induction of early apoptosis, Concentration (MDA MB 468): 100 µM | Minimal treatment time required for induction of early apoptosis, Time (MDA MB 468): 48 h | Indication of Early apoptosis (Bcl-2, annexin V, or caspase activation) [4]: None | Indication of Early apoptosis (Bcl-2, annexin V, or caspase activation) (Osteosarcoma (143b)): Very Strong | Minimal CoQ10 concentration required for induction of early apoptosis, Concentration (Osteosarcoma (143b)): 50 µM | Minimal treatment time required for induction of early apoptosis, Time (Osteosarcoma (143b)): 48 h | Indication of Early apoptosis (Bcl-2, annexin V, or caspase activation) (PC3): Very Strong | Minimal CoQ10 concentration required for induction of early apoptosis, Concentration (PC3): 25 µM | Minimal treatment time required for induction of early apoptosis, Time (PC3): 24 h | Indication of Early apoptosis (Bcl-2, annexin V, or caspase activation) (SkBr-3): Very Strong | Minimal CoQ10 concentration required for induction of early apoptosis, Concentration (SkBr-3): 50 µM | Minimal treatment time required for induction of early apoptosis, Time (SkBr-3): 24 h | Efficacy (tumor burden), one or more cycles of CoQ10 prior to a chemotherapeutic agent (tumors): more effective than co-administration of CoQ10 with a chemotherapeutic agent or a chemotherapeutic agent alone
